The text below walks through data of patent publication US20250197374A1, “WEE1 DEGRADING COMPOUNDS AND USES THEREOF” (BRISTOL-MYERS SQUIBB COMPANY, priority 2023, published 2025).

Format in all cases: cell-based
Assay [1] concerns the target T1, WEE1 (Homo sapiens, UniProt P30291+Q96SW2).
T1 construct: C-terminal ePL-tagged (DiscoverX, Fremont, CA) full-length WEE1 expression construct; expressed in transfected cells; host or cells: LentiX-HEK293T (Invitrogen), lentivirally transduced; the cells also over-express GSPT1-GN
Nature of the assay: WEE1-ePL degradation assay (293T-LentiX, InCELL Hunter luminescence, 4 hr). The note with it: for DC50: LentiX-HEK293T cells expressing WEE1-ePL, 4 hr incubation, read-out: 293T-LentiX WEE1-ePL Degradation 4 hr EC50; for 293T-LentiX WEE1-ePL Degradation 4 hr YMin (%): lower limit of fit, % of DMSO control signal remaining. In a few lines: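 LentiX-HEK293T cells expressing C-terminally ePL-tagged full-length WEE1 plus non-degradable GSPT1-GN (G575N, N-terminal 158 aa truncated). Treated 4 h at 37 °C with a 10-point, 3-fold series from 1 or 10 µM, then read by InCELL Hunter luminescence. EC50 from four-parameter logistic fit, Ymax set by DMSO control.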

Assay [2] has as its system MKN45 cells. In words: MKN45 cell proliferation assay (Cell-Titer-Glo, 120 hr). The note with it: for EC50: Homo sapiens, MKN-45, 120 h, read-out: MKN45 Cell Prolif. 120 hr EC50; for MKN45 Cell Prolif. 120 hr YMin (%): minimal percent of DMSO control observed. In a few lines: (§1)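 MKN45 (400/well) and MDA-MB-231 (800/well) cells in RPMI with 10% FBS were exposed to 10-point half-log doses from 1 or 10 uM (0.1% DMSO) for 120 h at 37 °C. Viability was read by CellTiter-Glo luminescence. EC50 came from blank-subtracted, %DMSO four-parameter fits, with Ymin-obs as the lowest %DMSO observed.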

Assay [3] deals with MDA-MB-231 cells. In words: MDA-MB-231 cell proliferation assay (Cell-Titer-Glo, 120 hr). The note with it: for EC50: Homo sapiens, MDA-MB-231, 120 h, read-out: MDA-MB 231 Cell Prolif. 120 hr EC50; for MDA-MB 231 Cell Prolif. 120 hr YMin (%): minimal percent of DMSO control observed. Put shortly: as §1

SMILES strings stand for the structures.

T1 sequence (P30291 whole entry): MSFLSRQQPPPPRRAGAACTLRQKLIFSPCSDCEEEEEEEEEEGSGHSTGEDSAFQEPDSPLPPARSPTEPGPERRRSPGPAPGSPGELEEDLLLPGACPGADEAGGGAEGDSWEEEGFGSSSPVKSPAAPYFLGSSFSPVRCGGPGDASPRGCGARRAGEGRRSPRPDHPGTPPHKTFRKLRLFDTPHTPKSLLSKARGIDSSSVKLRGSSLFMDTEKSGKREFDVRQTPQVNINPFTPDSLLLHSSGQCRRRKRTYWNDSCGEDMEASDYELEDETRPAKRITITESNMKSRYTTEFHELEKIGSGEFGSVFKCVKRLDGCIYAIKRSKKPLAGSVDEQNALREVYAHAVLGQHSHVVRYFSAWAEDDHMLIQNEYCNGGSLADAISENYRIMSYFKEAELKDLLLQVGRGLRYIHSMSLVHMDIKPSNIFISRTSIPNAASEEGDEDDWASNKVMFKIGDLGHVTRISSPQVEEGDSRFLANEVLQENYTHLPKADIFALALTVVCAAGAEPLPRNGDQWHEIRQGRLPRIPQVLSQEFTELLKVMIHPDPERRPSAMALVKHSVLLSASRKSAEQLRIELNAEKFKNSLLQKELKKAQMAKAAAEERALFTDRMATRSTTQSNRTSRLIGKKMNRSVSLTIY
T1 sequence (Q96SW2 whole entry): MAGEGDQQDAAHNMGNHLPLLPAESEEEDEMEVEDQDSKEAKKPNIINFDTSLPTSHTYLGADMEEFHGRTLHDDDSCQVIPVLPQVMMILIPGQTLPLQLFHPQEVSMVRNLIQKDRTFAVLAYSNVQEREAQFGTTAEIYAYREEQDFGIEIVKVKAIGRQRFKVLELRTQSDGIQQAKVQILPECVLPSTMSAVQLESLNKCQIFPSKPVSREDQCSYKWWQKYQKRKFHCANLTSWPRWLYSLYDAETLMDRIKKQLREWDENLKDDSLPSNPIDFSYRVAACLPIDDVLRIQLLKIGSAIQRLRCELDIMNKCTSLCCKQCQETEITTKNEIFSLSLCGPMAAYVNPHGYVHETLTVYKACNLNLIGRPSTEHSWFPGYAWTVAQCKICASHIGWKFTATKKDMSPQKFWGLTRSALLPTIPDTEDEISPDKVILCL
T1 sequence (Q16531 whole entry partner): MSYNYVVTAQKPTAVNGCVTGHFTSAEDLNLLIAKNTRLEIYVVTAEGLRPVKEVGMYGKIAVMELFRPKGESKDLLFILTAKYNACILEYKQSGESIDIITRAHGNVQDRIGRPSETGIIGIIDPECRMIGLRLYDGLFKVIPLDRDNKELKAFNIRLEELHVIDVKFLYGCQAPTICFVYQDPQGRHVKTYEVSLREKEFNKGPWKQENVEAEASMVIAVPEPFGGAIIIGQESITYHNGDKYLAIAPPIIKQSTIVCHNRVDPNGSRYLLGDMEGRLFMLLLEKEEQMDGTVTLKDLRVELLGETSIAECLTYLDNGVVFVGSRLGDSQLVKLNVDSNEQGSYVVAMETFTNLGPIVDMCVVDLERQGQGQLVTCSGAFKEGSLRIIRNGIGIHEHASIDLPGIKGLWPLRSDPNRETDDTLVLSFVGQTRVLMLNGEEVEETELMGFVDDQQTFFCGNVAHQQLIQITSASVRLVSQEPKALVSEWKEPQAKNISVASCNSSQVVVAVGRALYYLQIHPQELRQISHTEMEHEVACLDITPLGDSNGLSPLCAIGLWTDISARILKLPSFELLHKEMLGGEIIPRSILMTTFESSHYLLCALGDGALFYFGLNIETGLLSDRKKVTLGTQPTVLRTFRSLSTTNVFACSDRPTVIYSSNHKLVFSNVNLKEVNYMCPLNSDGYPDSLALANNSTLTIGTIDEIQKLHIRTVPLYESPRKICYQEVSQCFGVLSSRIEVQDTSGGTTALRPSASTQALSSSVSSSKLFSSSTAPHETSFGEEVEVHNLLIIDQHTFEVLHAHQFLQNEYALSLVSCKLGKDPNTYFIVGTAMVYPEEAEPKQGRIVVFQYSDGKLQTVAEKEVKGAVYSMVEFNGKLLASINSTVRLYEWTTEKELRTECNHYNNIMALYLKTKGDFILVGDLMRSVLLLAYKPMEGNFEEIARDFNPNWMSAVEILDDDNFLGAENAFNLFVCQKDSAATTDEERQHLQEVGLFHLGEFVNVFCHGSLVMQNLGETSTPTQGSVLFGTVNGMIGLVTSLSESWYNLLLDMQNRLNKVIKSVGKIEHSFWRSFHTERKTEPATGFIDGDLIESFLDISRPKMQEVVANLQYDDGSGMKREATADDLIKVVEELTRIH

With `COC[C@@H]1CN(Cc2cc(F)c3nc(C(=O)N(C)C4CCOCC4)ccc3c2)C[C@H]1Oc1ccc2c(c1)CN([C@H]1CCC(=O)NC1=O)C2=O` [Example 117, 6-{[(3S,4S)-3-({2-[(3S)-2,6-dioxopiperidin-3-yl]-1-oxo-2,3-dihydro-1H-isoindol-5-yl}oxy)-4-(methoxymethyl)pyrrolidin-1-yl]methyl}-8-fluoro-N-methyl-N-(oxan-4-yl)quinoline-2-carboxamide], in assay [1], the DC50 was 0.002 µM and the “293T-LentiX WEE1-ePL Degradation 4 hr YMin (%)” value is reported as 27.5%. Moreover, in assay [2], the EC50 stood at 0.004 µM and the “MKN45 Cell Prolif. 120 hr YMin (%)” value was found to be 9.1%. Further, in assay [3], the EC50 was 0.031 µM and the “MDA-MB 231 Cell Prolif. 120 hr YMin (%)” value is recorded as 40.1%.

Consider `COC[C@@H]1CN(Cc2cc(F)c3nc(C45CCC(C(C)(C)O)(CC4)CC5)ccc3c2)C[C@H]1Oc1ccc2c(c1)CN([C@H]1CCC(=O)NC1=O)C2=O` [Example 119, (S)-3-(5-(((3S,4S)-1-((8-fluoro-2-(4-(2-hydroxypropan-2-yl)bicyclo[2.2.2]octan-1-yl)quinolin-6-yl)methyl)-4-(methoxymethyl)pyrrolidin-3-yl)oxy)-1-oxoisoindolin-2-yl)piperidine-2,6-dione], for which, in assay [1], the “293T-LentiX WEE1-ePL Degradation 4 hr YMin (%)” value stood at 23.6%. Also, the “MKN45 Cell Prolif. 120 hr YMin (%)” value in assay [2] turned out to be 6.8%. Also, in assay [3], the EC50 worked out at 0.067 µM and the “MDA-MB 231 Cell Prolif. 120 hr YMin (%)” value is reported as 1.7%.

Consider `COC[C@@H]1CN(Cc2cc(F)c3nc(C4CN(CC(C)(C)O)C4)ccc3c2)C[C@H]1Oc1ccc2c(c1)CN([C@H]1CCC(=O)NC1=O)C2=O` [Example 120, (3S)-3-(5-{[(3S,4S)-1-({8-fluoro-2-[1-(2-hydroxy-2-methylpropyl)azetidin-3-yl]quinolin-6-yl}methyl)-4-(methoxymethyl)pyrrolidin-3-yl]oxy}-1-oxo-2,3-dihydro-1H-isoindol-2-yl)piperidine-2,6-dione], for which, in assay [1], the DC50 was determined as 0.004 µM and the “293T-LentiX WEE1-ePL Degradation 4 hr YMin (%)” value amounted to 17.2%. In addition, in assay [2], the EC50 worked out at 0.002 µM and the “MKN45 Cell Prolif. 120 hr YMin (%)” value is listed as 7.8%. Also, in assay [3], the EC50 came to 0.063 µM and the “MDA-MB 231 Cell Prolif. 120 hr YMin (%)” value worked out at 30.0%.

For `COC[C@@H]1CN(Cc2cc(F)c3nc(C45C6C7C4C4C5C6C74C(C)(C)O)ccc3c2)C[C@H]1Oc1ccc2c(c1)CN([C@H]1CCC(=O)NC1=O)C2=O` (stereo partly drawn) [Example 121, (S)-3-(5-(((3S,4S)-1-((8-fluoro-2-(4-(2-hydroxypropan-2-yl)cuban-1-yl)quinolin-6-yl)methyl)-4-(methoxymethyl)pyrrolidin-3-yl)oxy)-1-oxoisoindolin-2-yl)piperidine-2,6-dione], in assay [1], the “293T-LentiX WEE1-ePL Degradation 4 hr YMin (%)” value stood at 18.7%. Moreover, in assay [2], the “MKN45 Cell Prolif. 120 hr YMin (%)” value is given as 7.5%. Also, in assay [3], the EC50 was determined as 0.026 µM and the “MDA-MB 231 Cell Prolif. 120 hr YMin (%)” value is given as 13.2%.

Turning to `COC[C@@H]1CN(Cc2ccc3nc(C4CCN(C5CN(C)C5)CC4)ccc3c2)C[C@H]1Oc1ccc2c(c1)CN([C@H]1CCC(=O)NC1=O)C2=O` [Example 122, (3S)-3-(5-{[(3S,4S)-4-(methoxymethyl)-1-({2-[1-(1-methylazetidin-3-yl)piperidin-4-yl]quinolin-6-yl}methyl)pyrrolidin-3-yl]oxy}-1-oxo-2,3-dihydro-1H-isoindol-2-yl)piperidine-2,6-dione], in assay [1], the DC50 came out at 0.002 µM and the “293T-LentiX WEE1-ePL Degradation 4 hr YMin (%)” value is listed as 22.0%. Besides, in assay [2], the EC50 was 0.002 µM and the “MKN45 Cell Prolif. 120 hr YMin (%)” value came to 8.5%. In assay [3], the EC50 amounted to 0.023 µM and the “MDA-MB 231 Cell Prolif. 120 hr YMin (%)” value turned out to be 59.3%.

In the case of `COC[C@@H]1CN(Cc2ccc3nc(C4CCOCC4)ccc3n2)C[C@H]1Oc1ccc2c(c1)CN([C@H]1CCC(=O)NC1=O)C2=O` [Example 128, (3S)-3-(5-{[(3S,4S)-4-(methoxymethyl)-1-{[6-(oxan-4-yl)-1,5-naphthyridin-2-yl]methyl}pyrrolidin-3-yl]oxy}-1-oxo-2,3-dihydro-1H-isoindol-2-yl)piperidine-2,6-dione], in assay [1], the DC50 worked out at 0.001 µM and the “293T-LentiX WEE1-ePL Degradation 4 hr YMin (%)” value is 30.5%. In assay [2], the EC50 amounted to 0.011 µM and the “MKN45 Cell Prolif. 120 hr YMin (%)” value is recorded as 18.2%. Moreover, in assay [3], the EC50 came to 0.127 µM and the “MDA-MB 231 Cell Prolif. 120 hr YMin (%)” value is reported as 83.3%.

Regarding `COC[C@@H]1CN(Cc2cnc3nc(C4CCOCC4)ccc3c2)C[C@H]1Oc1ccc2c(c1)CN([C@H]1CCC(=O)NC1=O)C2=O` [Example 129, (3S)-3-(5-{[(3S,4S)-4-(methoxymethyl)-1-{[7-(oxan-4-yl)-1,8-naphthyridin-3-yl]methyl}pyrrolidin-3-yl]oxy}-1-oxo-2,3-dihydro-1H-isoindol-2-yl)piperidine-2,6-dione], in assay [1], the DC50 was 0.002 µM and the “293T-LentiX WEE1-ePL Degradation 4 hr YMin (%)” value worked out at 26.0%. In assay [2], the EC50 came out at 0.01 µM and the “MKN45 Cell Prolif. 120 hr YMin (%)” value is given as 10.6%. Besides, in assay [3], the EC50 is 0.319 µM and the “MDA-MB 231 Cell Prolif. 120 hr YMin (%)” value amounted to 80.6%.

On to `COC[C@@H]1CN(Cc2cnc3nc(C4CCOCC4)ncc3c2)C[C@H]1Oc1ccc2c(c1)CN([C@H]1CCC(=O)NC1=O)C2=O` [Example 134, (3S)-3-(5-{[(3S,4S)-4-(methoxymethyl)-1-{[2-(oxan-4-yl)pyrido[2,3-d]pyrimidin-6-yl]methyl}pyrrolidin-3-yl]oxy}-1-oxo-2,3-dihydro-1H-isoindol-2-yl)piperidine-2,6-dione], for which, in assay [1], the DC50 came out at 0.037 µM and the “293T-LentiX WEE1-ePL Degradation 4 hr YMin (%)” value is recorded as 32.0%. For the same compound, in assay [2], the 50% effective concentration (EC50) is 0.108 µM and the “MKN45 Cell Prolif. 120 hr YMin (%)” value is recorded as 12.9%. Also, in assay [3], the concentration giving a half-maximal response (EC50) stood at 1.42 µM and the “MDA-MB 231 Cell Prolif. 120 hr YMin (%)” value is given as 75.6%.

Take `COC[C@@H]1CN(Cc2cc3ccc(C4CCOCC4)nc3cn2)C[C@H]1Oc1ccc2c(c1)CN([C@H]1CCC(=O)NC1=O)C2=O` [Example 135, (3S)-3-(5-{[(3S,4S)-4-(methoxymethyl)-1-{[2-(oxan-4-yl)-1,7-naphthyridin-6-yl]methyl}pyrrolidin-3-yl]oxy}-1-oxo-2,3-dihydro-1H-isoindol-2-yl)piperidine-2,6-dione]: in assay [1], the DC50 was determined as 0.001 µM and the “293T-LentiX WEE1-ePL Degradation 4 hr YMin (%)” value was 35.7%. Also, in assay [2], the EC50 was 0.001 µM and the “MKN45 Cell Prolif. 120 hr YMin (%)” value came to 8.8%. In assay [3], the EC50 was 0.031 µM and the “MDA-MB 231 Cell Prolif. 120 hr YMin (%)” value came out at 55.6%.

As to `COC[C@@H]1CN(Cc2ccc3nc(C4CCOCC4)cnc3c2)C[C@H]1Oc1ccc2c(c1)CN([C@H]1CCC(=O)NC1=O)C2=O` [Example 136, (3S)-3-(5-{[(3S,4S)-4-(methoxymethyl)-1-{[2-(oxan-4-yl)quinoxalin-6-yl]methyl}pyrrolidin-3-yl]oxy}-1-oxo-2,3-dihydro-1H-isoindol-2-yl)piperidine-2,6-dione], in assay [1], the DC50 amounted to 0.002 µM and the “293T-LentiX WEE1-ePL Degradation 4 hr YMin (%)” value turned out to be 31.9%. For the same compound, in assay [2], the EC50 turned out to be 0.041 µM and the “MKN45 Cell Prolif. 120 hr YMin (%)” value was determined as 26.6%. In assay [3], the EC50 worked out at 0.287 µM and the “MDA-MB 231 Cell Prolif. 120 hr YMin (%)” value worked out at 91.8%.

Take `O=C1CC[C@H](N2Cc3cc(O[C@@H]4CN(Cc5cc(F)c6nc(C7CCOCC7)ccc6c5)C[C@H]4CO)ccc3C2=O)C(=O)N1` [Example 139, (3S)-3-(5-{[(3S,4S)-1-{[8-fluoro-2-(oxan-4-yl)quinolin-6-yl]methyl}-4-(hydroxymethyl)pyrrolidin-3-yl]oxy}-1-oxo-2,3-dihydro-1H-isoindol-2-yl)piperidine-2,6-dione]: in assay [1], the DC50 was found to be 0.002 µM and the “293T-LentiX WEE1-ePL Degradation 4 hr YMin (%)” value is reported as 20.2%. In assay [2], the EC50 was determined as 0.005 µM and the “MKN45 Cell Prolif. 120 hr YMin (%)” value is 10.3%. For the same compound, in assay [3], the EC50 was 0.133 µM and the “MDA-MB 231 Cell Prolif. 120 hr YMin (%)” value stood at 65.9%.

For `O=C1CC[C@H](N2Cc3cc(O[C@@H]4CN(Cc5cc(F)c6ncc(N7CCOCC7)cc6c5)C[C@H]4COC(F)(F)F)ccc3C2=O)C(=O)N1` [Example 140, (3S)-3-(5-{[(3S,4S)-1-{[8-fluoro-3-(morpholin-4-yl)quinolin-6-yl]methyl}-4-[(trifluoromethoxy)methyl]pyrrolidin-3-yl]oxy}-1-oxo-2,3-dihydro-1H-isoindol-2-yl)piperidine-2,6-dione], in assay [1], the DC50 is 0.001 µM and the “293T-LentiX WEE1-ePL Degradation 4 hr YMin (%)” value was 25.3%. For the same compound, in assay [2], the EC50 turned out to be 0.001 µM and the “MKN45 Cell Prolif. 120 hr YMin (%)” value turned out to be 8.3%. Also, in assay [3], the EC50 was 0.056 µM and the “MDA-MB 231 Cell Prolif. 120 hr YMin (%)” value came to 24.8%.

Turning to `COC[C@@H]1CN(Cc2cc(F)c3nc(N4CCN(C5COC5)CC4)ncc3c2)C[C@H]1Oc1ccc2c(c1)CN([C@H]1CCC(=O)NC1=O)C2=O` [Example 141, (3S)-3-(5-{[(3S,4S)-1-({8-fluoro-2-[4-(oxetan-3-yl)piperazin-1-yl]quinazolin-6-yl}methyl)-4-(methoxymethyl)pyrrolidin-3-yl]oxy}-1-oxo-2,3-dihydro-1H-isoindol-2-yl)piperidine-2,6-dione], in assay [1], the DC50 is 0.001 µM and the “293T-LentiX WEE1-ePL Degradation 4 hr YMin (%)” value came to 26.5%. Further, in assay [2], the EC50 came out at 0.001 µM and the “MKN45 Cell Prolif. 120 hr YMin (%)” value is reported as 11.4%. For the same compound, in assay [3], the EC50 turned out to be 0.044 µM and the “MDA-MB 231 Cell Prolif. 120 hr YMin (%)” value amounted to 31.7%.
